Source: article PMC8400968, “Design, Synthesis, Biological Evaluation, and Computational Studies of Novel Tri-Aryl Imidazole-Benzene Sulfonamide Hybrids as Promising Selective Carbonic Anhydrase IX and XII Inhibitors” (Molecules, 2021)
Where “and” joins values, the source holds several entries; their conditions need not be identical. Equal values may be shown once. Read-outs that look alike come from different tables or passages of the source.

Experiments:
hCA XII = target: T1, hCA XII (Homo sapiens, UniProt O43570); assay: stopped-flow CO2 hydrase assay, hCA XII; assay type: biochemical
T1 construct: made in house
Protocol: Newly synthesized hybrids 5a–n were tested for their inhibitory activity against four physiologically and pharmacologically CA isoforms, namely cytosolic hCA I and II, and tumor-associated isoforms hCA IX and XII, using a CO2 hydrase stop-flow assay. Acetazolamide (AAZ), clinically used sulphonamide, was used as the standard drug. […]. The ortho substitution in the aryl moiety appears to correlate with higher inhibitory effects against both hCA IX and XII. […] […]. The ability of imidazoles 5a–n toward inhibition of hCA I, II (cytosolic) as well as hCA IX and XII (transmembrane, tumor-associated isoforms) using stopped-flow CO2 hydrase assay was evaluated. See Appendix A.
The carbonic anhydrase catalyzed CO2 hydration actions for all new compounds herein reported have were assayed utilizing an instrument of Applied Photophysics stopped-flow. The enzymes are recombinant proteins prepared in our lab. […]. The uncatalyzed rates were determined in the same manner and subtracted from the total observed rates. Stock solutions of inhibitor (0.1 mM) were prepared in distilled-deionized water and dilutions up to 0.01 nM were done thereafter with the assay buffer. Inhibitor and enzyme solutions were preincubated together for 15 min at room temperature prior to assay, in order to allow for the formation of the E-I complex. The inhibition constants were obtained by non-linear least-squares methods using PRISM 3 and the Cheng-Prusoff equation, and represent the mean from at least three different determinations.

hCA I = target: T2, hCA I (Homo sapiens, UniProt P00915); assay: stopped-flow CO2 hydrase assay, hCA I; assay type: biochemical
T2 construct: made in house
Protocol: (§1) Newly synthesized hybrids 5a–n were tested for their inhibitory activity against four physiologically and pharmacologically CA isoforms, namely cytosolic hCA I and II, and tumor-associated isoforms hCA IX and XII, using a CO2 hydrase stop-flow assay. Acetazolamide (AAZ), clinically used sulphonamide, was used as the standard drug. […] The ability of imidazoles 5a–n toward inhibition of hCA I, II (cytosolic) as well as hCA IX and XII (transmembrane, tumor-associated isoforms) using stopped-flow CO2 hydrase assay was evaluated. See Appendix A.
(§2) The enzymes are recombinant proteins prepared in our lab. […] The uncatalyzed rates were determined in the same manner and subtracted from the total observed rates. Stock solutions of inhibitor (0.1 mM) were prepared in distilled-deionized water and dilutions up to 0.01 nM were done thereafter with the assay buffer. Inhibitor and enzyme solutions were preincubated together for 15 min at room temperature prior to assay, in order to allow for the formation of the E-I complex. The inhibition constants were obtained by non-linear least-squares methods using PRISM 3 and the Cheng-Prusoff equation, and represent the mean from at least three different determinations.

hCA IX = target: T3, hCA IX (Homo sapiens, UniProt Q16790); assay: stopped-flow CO2 hydrase assay, hCA IX; assay type: biochemical; details: for Selectivity Ratio hCA XII/ hCA IX: selectivity for hCA IX over hCA XII; for Ki: stopped-flow CO2 hydrase assay; for IC50: quoted in docking discussion, read-out: IC50 CA-IX (in vitro inhibitory activity quoted in docking study); for fold lower inhibitory activity on hCA IX than the ortho-derivative: 5f vs 5e, 5h vs 5g
T3 construct: made in house
Protocol: as §1, §2

hCA II = target: T4, hCA II (Homo sapiens, UniProt P00918); assay: stopped-flow CO2 hydrase assay, hCA II; assay type: biochemical
T4 construct: made in house
Protocol: as §1, §2

[1] = system: colon cancer cell line (HT-29); assay: Antiproliferative activity, MTT assay, HT-29; assay type: cell-based; details: Homo sapiens; HT-29, MTT; read-out: Antiproliferative Activity IC50 ± SEM HT-29
Protocol: (§3) The antiproliferative activity of 5b, 5d, 5e, 5g, 5j and 5n against four human cancer cell lines including pancreatic cancer cell line (Panc-1), breast cancer cell line (MCF-7), colon cancer cell line (HT-29) and epithelial cancer cell line (A-549) using MTT assay and doxorubicin was applied as the reference compound [22, 23]. Graph Pad Prism software (Graph Pad Software, San Diego, CA, USA) was used to calculate the median inhibition concentration (IC50) and results are recorded in Table 2.
(§4) The antiproliferative activity of 5b, 5d, 5e, 5g, 5j and 5n against four human cancer cell lines including pancreatic cancer cell line (Panc-1), breast cancer cell line (MCF-7), colon cancer cell line (HT-29) and epithelial cancer cell line (A-549) using MTT assay and doxorubicin was applied as the reference compound [22, 23]. See Appendix A.
(§5) To explore the antiproliferative potential of compounds MTT assay was performed according to previously reported procedure using different cell lines To explore the antiproliferative potential of compounds propidium iodide fluorescence assay was performed using different cell lines. To calculate the total nuclear DNA, a fluorescent dye (propidium iodide, PI) is used which can attach to the DNA, thus offering a quick and precise technique. PI cannot pass through the cell membrane and its signal intensity can be considered as directly proportional to quantity of cellular DNA. Cells whose cell membranes are damaged or have changed permeability are counted as dead ones. The assay was performed by seeding the cells of different cell lines at a density of 3000–7500 cells/well (in 200 µL medium) in culture plates followed by incubation for 24 h at 37 °C in humidified 5% CO2/95% air atmospheric conditions. The medium was removed; the compounds were added to the plates at 10 µM concentrations (in 0.1% DMSO) in triplicates, followed by incubation for 48 h. DMSO (0.1%) was used as control. After incubation, medium was removed followed by the addition of PI (25 µL, 50µg/mL in water/medium) to each well of the plates. At −80 °C, the plates were allowed to freeze for 24 h, followed by thawing at 25 °C. A fluorometer (Polar-Star BMG Tech, Offenburg, Germany) was used to record the readings at excitation and emission wavelengths of 530 and 620 nm for each well. The percentage cytotoxicity of compounds was calculated using the following formula: %Cytotoxicity=(Ac−Atc)/Ac×100 where Atc = Absorbance of treated cells and Ac = Absorbance of control. Erlotinib was used as positive control in the assay.

[2] = system: pancreatic cancer cell line (Panc-1); assay: Antiproliferative activity, MTT assay, Panc-1; assay type: cell-based; details: Homo sapiens; Panc-1, MTT; read-out: Antiproliferative Activity IC50 ± SEM Panc-1
Protocol: as §3, §4, §5

[3] = Cell viability assay (MTT); assay type: cell-based; details: human, MCF-10A mammary gland epithelial cells, MCF-10A cells, incubated 4 days
Protocol: Cell viability assay was carried out using human mammary gland epithelial cell line (MCF-10A). MCF-10A cells were incubated with compounds 5b, 5d, 5e, 5g, 5j and 5n for 4 days and MTT assay was used to determine the viability of cells. See Appendix A.
MTT assay was carried out to study the effect of compounds on mammary epithelial cells (MCF-10A). The medium in which cells were propagated contained Dulbecco’s modified Eagle’s medium (DMEM)/Ham’s F-12 medium (1:1) supplemented with epidermal growth factor (20 ng/mL), hydrocortisone (500 ng/mL), insulin (10 μg/mL), 2 mM glutamine and 10% fetal calf serum. After every 2–3 days, the cells were passaged using trypsin ethylenediamine tetra acetic acid (EDTA). The cells were seeded at a density of 10^4 cells mL^−1 in flat-bottomed culture plates containing 96 wells each. After 24 h, medium was removed from the plates and the compounds in (in 0.1% DMSO) were added (in 200 μL medium to yield a final concentration of 0.1% v/v) to the wells of plates. A single compound was designated with four wells followed by incubation of plates for 96 h at 37 °C. After incubation, medium was removed completely from the plates followed by addition of MTT (0.4 mg/mL in medium) to each well and subsequent incubation of plates for 3 h. MTT (along with the medium) was removed and DMSO (150 μL) was added to each well of the culture plates, followed by vortexing and subsequent measurement of absorbance (at 540 nm) using microplate reader. The data are shown as percentage inhibition of proliferation in comparison with controls containing 0.1% DMSO.

[4] = system: epithelial cancer cell line (A-549); assay: Antiproliferative activity, MTT assay, A-549; assay type: cell-based; details: Homo sapiens, A549; A-549, MTT; read-out: Antiproliferative Activity IC50 ± SEM A-549
Protocol: as §3, §4, §5

[5] = system: four human cancer cell lines (Panc-1, MCF-7, HT-29, A-549); assay: Antiproliferative activity, MTT assay, average of the four cell lines; assay type: cell-based; details: for IC50: average of A-549, MCF-7, Panc-1, HT-29; for GI50: four cancer cell lines, read-out: GI50
Protocol: as §3, §4, §5

[6] = system: breast cancer cell line (MCF-7); assay: Antiproliferative activity, MTT assay, MCF-7; assay type: cell-based; details: Homo sapiens, MCF7; MCF-7, MTT; read-out: Antiproliferative Activity IC50 ± SEM MCF-7
Protocol: as §3, §4, §5

[7] = stopped-flow CO2 hydrase assay, read-out: Ki hCA I

T2 sequence (P00915 whole entry): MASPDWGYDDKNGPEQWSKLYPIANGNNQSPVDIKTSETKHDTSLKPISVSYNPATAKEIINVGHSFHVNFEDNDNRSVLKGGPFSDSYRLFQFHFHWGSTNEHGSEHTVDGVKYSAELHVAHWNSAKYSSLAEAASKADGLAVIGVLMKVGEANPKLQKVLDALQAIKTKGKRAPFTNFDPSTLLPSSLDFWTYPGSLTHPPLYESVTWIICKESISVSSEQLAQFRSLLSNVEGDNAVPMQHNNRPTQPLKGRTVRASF
T1 sequence (O43570 25-354): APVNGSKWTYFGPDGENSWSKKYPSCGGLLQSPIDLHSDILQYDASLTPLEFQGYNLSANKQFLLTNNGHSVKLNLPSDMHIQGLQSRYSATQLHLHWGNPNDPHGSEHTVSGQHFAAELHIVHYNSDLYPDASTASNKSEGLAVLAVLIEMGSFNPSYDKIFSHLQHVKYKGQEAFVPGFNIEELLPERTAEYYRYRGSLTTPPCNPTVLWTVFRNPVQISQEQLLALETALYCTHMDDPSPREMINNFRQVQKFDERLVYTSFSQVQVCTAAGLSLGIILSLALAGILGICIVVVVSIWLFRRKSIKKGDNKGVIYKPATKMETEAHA

Ki (hCA XII)	Ki (hCA I)	melting point	Selectivity Ratio hCA XII/ hCA IX (hCA IX)	Ki (hCA IX)	Ki (hCA II)	IC50 [1]	IC50 [2]	IC50 [4]	Ki (hCA I; [7])	IC50 [5]	GI50 [5]	IC50 [6]	IC50 (hCA IX)	fold lower inhibitory activity on hCA IX than the ortho-derivative (hCA IX)	Compound	viability at 96 h [3]
6.8 µM	> 100 µM	224 to 226 °C	0.70	9.3 µM	> 100 µM								9.3 µM		CN(C)c1ccc(-c2nc(-c3ccccc3)c(-c3ccccc3)n2-c2ccc(S(N)(=O)=O)cc2)cc1 [Compound 5k, 4-(2-(4-(Dimethylamino)phenyl)-4,5-diphenyl-1H-imidazol-1-yl)benzene sulfonamide]	
6.8 µM	> 100 µM	200 to 202 °C	0.80	8.5 µM	> 100 µM										NS(=O)(=O)c1ccc(-n2c(-c3ccc(C(=O)O)cc3)nc(-c3ccccc3)c2-c2ccccc2)cc1 [Compound 5l, 4-(4,5-Diphenyl-1-(4-sulfamoylphenyl)-1H-imidazol-2-yl)benzoic acid]	
6.2 µM		216 to 218 °C	0.70	8.8 µM	> 100 µM				> 100 µM						CCOC(=O)c1ccc(-c2nc(-c3ccccc3)c(-c3ccccc3)n2-c2ccc(S(N)(=O)=O)cc2)cc1 [Compound 5m, Ethyl 4-(4,5-diphenyl-1-(4-sulfamoylphenyl)-1H-imidazol-2-yl)benzoate]	
						1 ± 0.8 µM	1.4 ± 0.6 µM	1.2 ± 0.8 µM		1.1 µM	1.1 µM	0.9 ± 0.6 µM			COc1cccc2c1C(=O)c1c(O)c3c(c(O)c1C2=O)C[C@@](O)(C(=O)CO)C[C@@H]3O[C@H]1C[C@H](N)[C@H](O)[C@H](C)O1 [Doxorubicin, reference compound]	

The next lines start with the compound.

Compound	Ki (hCA XII)	Ki (hCA I)	melting point	Selectivity Ratio hCA XII/ hCA IX (hCA IX)	Ki (hCA IX)	Ki (hCA II)	IC50 [1]	IC50 [2]	IC50 [4]	Ki (hCA I; [7])	IC50 [5]	GI50 [5]	IC50 [6]	IC50 (hCA IX)	fold lower inhibitory activity on hCA IX than the ortho-derivative (hCA IX)	viability at 96 h [3]
NS(=O)(=O)c1ccc(-n2c(-c3ccccc3)nc(-c3ccccc3)c2-c2ccccc2)cc1 [Compound 5a, 4-(2,4,5-Triphenyl-1H-imidazol-1-yl)benzene sulfonamide]	5.5 µM	> 100 µM	210 to 212 °C	1.90	2.9 µM	> 100 µM										
NS(=O)(=O)c1ccc(-n2c(-c3ccccc3Br)nc(-c3ccccc3)c2-c2ccccc2)cc1 [Compound 5b, 4-(2-(2-Bromophenyl)-4,5-diphenyl-1H-imidazol-1-yl)benzene sulfonamide]	4.6 µM			11.50	0.36 µM and 0.4 µM	> 100 µM	3.1 ± 0.1 µM	2.5 ± 0.2 µM	2.8 ± 0.5 µM	> 100 µM	2.8 µM	2.8 µM	2.7 ± 0.4 µM	0.36 µM		91%
NS(=O)(=O)c1ccc(-n2c(-c3ccc(Cl)cc3)nc(-c3ccccc3)c2-c2ccccc2)cc1 [Compound 5c, 4-(2-(4-Chlorophenyl)-4,5-diphenyl-1H-imidazol-1-yl)benzene sulfonamide]	3.7 µM	> 100 µM	230 to 232 °C	0.45	8.2 µM	> 100 µM										
NS(=O)(=O)c1ccc(-n2c(-c3ccccc3O)nc(-c3ccccc3)c2-c2ccccc2)cc1 [Compound 5e, 4-(2-(2-Hydroxyphenyl)-4,5-diphenyl-1H-imidazol-1-yl)benzene sulfonamide]	5.2 µM	> 100 µM		6.50	0.84 µM and 0.8 µM	> 100 µM	3.9 ± 0.6 µM	3.7 ± 0.5 µM	4.4 ± 0.7 µM		3.9 µM		3.6 ± 0.8 µM			86%
NS(=O)(=O)c1ccc(-n2c(-c3ccc(O)cc3)nc(-c3ccccc3)c2-c2ccccc2)cc1 [Compound 5f, 4-(2-(4-Hydroxyphenyl)-4,5-diphenyl-1H-imidazol-1-yl)benzene sulfonamide]	7.1 µM	> 100 µM		0.90	8.4 µM	> 100 µM									10 fold	
COc1ccc(-c2nc(-c3ccccc3)c(-c3ccccc3)n2-c2ccc(S(N)(=O)=O)cc2)cc1 [Compound 5h, 4-(2-(4-Methoxyphenyl)-4,5-diphenyl-1H-imidazol-1-yl)benzene sulfonamide]	3.9 µM	> 100 µM	235 to 237 °C	0.50	7.4 µM	> 100 µM									22 fold	
COc1ccc(-c2nc(-c3ccccc3)c(-c3ccccc3)n2-c2ccc(S(N)(=O)=O)cc2)cc1OC [Compound 5i, 4-(2-(3,4-Dimethoxyphenyl)-4,5-diphenyl-1H-imidazol-1-yl)benzene sulfonamide]	6.6 µM	> 100 µM	260 to 262 °C	0.70	9.2 µM	> 100 µM								9.2 µM		
